The target of test [1] is T1, 3-phosphoinositide-dependent protein kinase 1 (Homo sapiens, UniProt O15530).
T1 sequence (O15530 whole entry): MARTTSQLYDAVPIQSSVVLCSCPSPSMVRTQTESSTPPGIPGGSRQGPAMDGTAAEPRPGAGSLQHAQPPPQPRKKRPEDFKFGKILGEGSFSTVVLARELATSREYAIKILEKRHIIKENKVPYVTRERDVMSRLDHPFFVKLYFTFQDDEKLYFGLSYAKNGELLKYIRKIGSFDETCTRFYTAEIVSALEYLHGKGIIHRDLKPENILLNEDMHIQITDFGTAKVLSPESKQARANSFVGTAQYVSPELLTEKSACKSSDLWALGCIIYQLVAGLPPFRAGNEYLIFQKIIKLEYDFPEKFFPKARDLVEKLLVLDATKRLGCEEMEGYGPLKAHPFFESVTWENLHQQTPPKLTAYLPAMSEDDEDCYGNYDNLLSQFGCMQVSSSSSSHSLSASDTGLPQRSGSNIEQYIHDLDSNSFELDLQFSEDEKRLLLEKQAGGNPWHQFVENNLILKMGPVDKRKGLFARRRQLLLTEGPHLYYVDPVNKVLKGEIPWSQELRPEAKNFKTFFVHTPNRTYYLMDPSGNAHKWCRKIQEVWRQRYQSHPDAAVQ
Description: Inhibition of His-tagged-truncated human PDK1 preincubated with substrate biotinylated-AKT3 for 30 mins measured after 3 hrs by Scintillation proximity assay

Test [2] concerns the target T1, 3-phosphoinositide-dependent protein kinase 1. Put plainly: Inhibition of human PDK1 preincubated with substrate biotinylated PDKtide for 30 mins measured after 4 hrs by Scintillation proximity assay. In general terms: SPA uses beads or plates that emit light when radiolabelled molecules are held near them.
In test [3] the target is RAC-alpha serine/threonine-protein kinase (Homo sapiens, UniProt P31749). Put plainly: Inhibition of AKT1.
Test [4] has as its target T2, Mitogen-activated protein kinase kinase kinase 5 (Homo sapiens, UniProt Q99683).
T2 sequence (Q99683 whole entry): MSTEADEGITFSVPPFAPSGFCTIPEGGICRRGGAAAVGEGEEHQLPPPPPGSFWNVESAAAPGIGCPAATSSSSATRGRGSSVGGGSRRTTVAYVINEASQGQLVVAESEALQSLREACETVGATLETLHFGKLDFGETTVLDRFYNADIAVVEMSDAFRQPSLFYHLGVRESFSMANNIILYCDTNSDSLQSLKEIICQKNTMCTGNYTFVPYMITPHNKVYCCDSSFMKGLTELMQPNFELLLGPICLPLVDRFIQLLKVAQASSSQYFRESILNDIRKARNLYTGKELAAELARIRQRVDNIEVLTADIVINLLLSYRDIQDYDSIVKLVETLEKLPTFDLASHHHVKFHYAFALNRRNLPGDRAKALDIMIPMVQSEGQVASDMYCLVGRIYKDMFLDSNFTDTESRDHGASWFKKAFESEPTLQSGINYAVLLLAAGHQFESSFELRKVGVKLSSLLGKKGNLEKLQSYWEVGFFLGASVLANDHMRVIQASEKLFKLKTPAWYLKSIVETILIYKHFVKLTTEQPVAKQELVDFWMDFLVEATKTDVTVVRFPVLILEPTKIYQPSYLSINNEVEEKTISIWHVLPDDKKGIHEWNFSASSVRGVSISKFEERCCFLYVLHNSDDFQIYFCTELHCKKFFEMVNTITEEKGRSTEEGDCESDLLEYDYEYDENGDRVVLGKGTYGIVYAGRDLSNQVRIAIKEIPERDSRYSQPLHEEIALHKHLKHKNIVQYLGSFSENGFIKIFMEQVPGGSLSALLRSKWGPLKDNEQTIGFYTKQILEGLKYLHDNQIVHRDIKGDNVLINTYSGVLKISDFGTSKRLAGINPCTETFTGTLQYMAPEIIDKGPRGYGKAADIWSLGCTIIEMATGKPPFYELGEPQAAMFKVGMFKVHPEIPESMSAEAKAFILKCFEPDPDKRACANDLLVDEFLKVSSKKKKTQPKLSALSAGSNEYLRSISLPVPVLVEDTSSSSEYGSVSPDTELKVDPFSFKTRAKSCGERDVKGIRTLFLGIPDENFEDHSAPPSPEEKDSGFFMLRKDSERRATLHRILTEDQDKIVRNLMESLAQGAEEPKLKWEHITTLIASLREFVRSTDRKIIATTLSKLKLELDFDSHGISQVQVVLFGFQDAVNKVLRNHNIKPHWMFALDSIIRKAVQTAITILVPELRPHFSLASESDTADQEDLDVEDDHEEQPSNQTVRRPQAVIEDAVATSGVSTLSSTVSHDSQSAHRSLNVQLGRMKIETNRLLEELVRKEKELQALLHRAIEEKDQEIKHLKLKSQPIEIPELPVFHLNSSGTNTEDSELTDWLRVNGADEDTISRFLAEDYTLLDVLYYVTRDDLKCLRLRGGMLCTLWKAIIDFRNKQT
Put plainly: Inhibition of ASK1.

Another test deals with T3, Aurora kinase A (Homo sapiens, UniProt O14965).
T3 sequence (O14965 whole entry): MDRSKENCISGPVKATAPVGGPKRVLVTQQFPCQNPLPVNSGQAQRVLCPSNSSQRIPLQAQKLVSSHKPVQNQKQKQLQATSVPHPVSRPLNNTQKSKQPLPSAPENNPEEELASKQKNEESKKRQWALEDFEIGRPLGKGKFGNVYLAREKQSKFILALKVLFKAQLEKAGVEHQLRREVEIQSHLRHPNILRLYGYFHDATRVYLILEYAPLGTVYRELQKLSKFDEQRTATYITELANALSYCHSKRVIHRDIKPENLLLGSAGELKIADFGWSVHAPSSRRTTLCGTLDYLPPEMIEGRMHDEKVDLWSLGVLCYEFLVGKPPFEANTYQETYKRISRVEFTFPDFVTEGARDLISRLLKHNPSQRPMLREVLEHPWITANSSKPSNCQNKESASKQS
Put plainly: Inhibition of Aurora A.

Test [5] concerns the target Cyclin-dependent kinase 2 (Homo sapiens, UniProt P24941). Put plainly: Inhibition of CDK2.
Test [6] addresses T4, Serine/threonine-protein kinase Chk1 (Homo sapiens, UniProt O14757).
T4 sequence (O14757 whole entry): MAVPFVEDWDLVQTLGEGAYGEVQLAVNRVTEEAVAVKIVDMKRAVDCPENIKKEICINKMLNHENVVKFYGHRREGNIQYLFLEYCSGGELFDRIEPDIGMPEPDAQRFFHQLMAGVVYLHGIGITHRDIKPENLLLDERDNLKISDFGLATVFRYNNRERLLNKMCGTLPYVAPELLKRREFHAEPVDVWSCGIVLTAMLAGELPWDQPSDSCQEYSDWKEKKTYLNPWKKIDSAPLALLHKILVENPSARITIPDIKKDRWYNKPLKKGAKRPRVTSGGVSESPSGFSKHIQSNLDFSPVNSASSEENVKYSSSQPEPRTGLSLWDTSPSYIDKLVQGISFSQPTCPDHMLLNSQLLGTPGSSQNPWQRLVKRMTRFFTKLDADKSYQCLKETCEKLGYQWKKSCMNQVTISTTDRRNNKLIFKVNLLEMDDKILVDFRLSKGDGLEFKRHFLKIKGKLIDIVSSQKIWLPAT
Put plainly: Inhibition of CHK1.

Test [7] addresses Insulin-like growth factor 1 receptor (Homo sapiens, UniProt P08069). Put plainly: Inhibition of IGF1R.
Test [8] has as its target T5, Inhibitor of nuclear factor kappa-B kinase subunit alpha (Homo sapiens, UniProt O15111).
T5 sequence (O15111 whole entry): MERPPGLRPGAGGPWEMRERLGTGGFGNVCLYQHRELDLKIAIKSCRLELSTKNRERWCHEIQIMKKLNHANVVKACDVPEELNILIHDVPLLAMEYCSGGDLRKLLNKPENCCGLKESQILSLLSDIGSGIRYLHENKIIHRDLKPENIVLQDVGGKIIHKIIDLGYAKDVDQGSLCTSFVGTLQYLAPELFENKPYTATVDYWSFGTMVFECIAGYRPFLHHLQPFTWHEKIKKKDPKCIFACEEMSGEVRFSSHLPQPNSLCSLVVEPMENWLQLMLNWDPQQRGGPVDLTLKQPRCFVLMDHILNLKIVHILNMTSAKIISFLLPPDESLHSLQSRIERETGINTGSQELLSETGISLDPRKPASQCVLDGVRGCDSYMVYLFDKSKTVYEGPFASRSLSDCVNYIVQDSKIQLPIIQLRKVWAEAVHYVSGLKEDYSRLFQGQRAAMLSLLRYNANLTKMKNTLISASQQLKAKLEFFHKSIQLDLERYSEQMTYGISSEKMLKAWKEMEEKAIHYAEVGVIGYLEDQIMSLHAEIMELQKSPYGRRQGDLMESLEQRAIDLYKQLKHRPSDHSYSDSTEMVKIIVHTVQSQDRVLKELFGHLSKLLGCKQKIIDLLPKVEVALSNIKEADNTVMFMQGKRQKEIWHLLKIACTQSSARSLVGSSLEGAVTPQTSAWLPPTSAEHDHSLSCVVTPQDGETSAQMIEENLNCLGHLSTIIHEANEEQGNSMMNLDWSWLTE
Put plainly: Inhibition of IKK1.

Another test addresses Insulin receptor (Homo sapiens, UniProt P06213). Put plainly: Inhibition of INS.
Test [9] deals with T6, Tyrosine-protein kinase JAK3 (Homo sapiens, UniProt P52333).
T6 sequence (P52333 whole entry): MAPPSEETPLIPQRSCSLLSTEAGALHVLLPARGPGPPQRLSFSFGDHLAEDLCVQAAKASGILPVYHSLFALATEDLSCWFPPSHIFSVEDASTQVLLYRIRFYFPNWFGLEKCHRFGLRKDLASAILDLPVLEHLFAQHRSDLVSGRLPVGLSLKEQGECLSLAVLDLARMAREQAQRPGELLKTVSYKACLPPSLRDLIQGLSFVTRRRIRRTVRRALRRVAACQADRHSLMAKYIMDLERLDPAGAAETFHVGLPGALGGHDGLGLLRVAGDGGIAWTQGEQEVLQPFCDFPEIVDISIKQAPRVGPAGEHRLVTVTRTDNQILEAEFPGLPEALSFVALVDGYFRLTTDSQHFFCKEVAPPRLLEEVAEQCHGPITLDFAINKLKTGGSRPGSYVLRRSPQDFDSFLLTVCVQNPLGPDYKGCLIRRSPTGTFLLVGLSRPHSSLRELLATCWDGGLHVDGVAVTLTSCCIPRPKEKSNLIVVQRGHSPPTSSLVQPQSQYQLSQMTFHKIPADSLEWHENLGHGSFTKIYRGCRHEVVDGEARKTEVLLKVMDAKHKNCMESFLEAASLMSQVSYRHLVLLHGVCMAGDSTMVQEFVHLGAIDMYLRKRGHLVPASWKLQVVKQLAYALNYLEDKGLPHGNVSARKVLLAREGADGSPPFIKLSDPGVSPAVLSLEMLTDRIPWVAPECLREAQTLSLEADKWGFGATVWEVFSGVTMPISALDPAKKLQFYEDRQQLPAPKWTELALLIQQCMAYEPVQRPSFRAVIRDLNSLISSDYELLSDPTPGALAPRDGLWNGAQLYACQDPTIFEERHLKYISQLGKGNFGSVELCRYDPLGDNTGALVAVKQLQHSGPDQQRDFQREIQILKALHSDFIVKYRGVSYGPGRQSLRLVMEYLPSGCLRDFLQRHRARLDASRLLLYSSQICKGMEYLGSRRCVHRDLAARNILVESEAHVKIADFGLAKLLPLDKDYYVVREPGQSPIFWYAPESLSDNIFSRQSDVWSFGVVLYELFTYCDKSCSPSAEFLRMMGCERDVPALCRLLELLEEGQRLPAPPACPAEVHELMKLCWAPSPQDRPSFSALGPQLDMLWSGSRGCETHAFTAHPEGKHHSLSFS
Put plainly: Inhibition of JAK3.

Test [10] has as its target Mitogen-activated protein kinase 8 (Homo sapiens, UniProt P45983). Put plainly: Inhibition of JNK1.
Test [11] has as its target Ribosomal protein S6 kinase beta-1 (Homo sapiens, UniProt P23443). Put plainly: Inhibition of p70S6K.
For test [12], the target named is Phosphatidylinositol 4,5-bisphosphate 3-kinase catalytic subunit alpha isoform (Homo sapiens, UniProt P42336). Put plainly: Inhibition of PI3Kalpha.
Test [13] has as its target T7, Serine/threonine-protein kinase Sgk1 (Homo sapiens, UniProt O00141).
T7 sequence (O00141 whole entry): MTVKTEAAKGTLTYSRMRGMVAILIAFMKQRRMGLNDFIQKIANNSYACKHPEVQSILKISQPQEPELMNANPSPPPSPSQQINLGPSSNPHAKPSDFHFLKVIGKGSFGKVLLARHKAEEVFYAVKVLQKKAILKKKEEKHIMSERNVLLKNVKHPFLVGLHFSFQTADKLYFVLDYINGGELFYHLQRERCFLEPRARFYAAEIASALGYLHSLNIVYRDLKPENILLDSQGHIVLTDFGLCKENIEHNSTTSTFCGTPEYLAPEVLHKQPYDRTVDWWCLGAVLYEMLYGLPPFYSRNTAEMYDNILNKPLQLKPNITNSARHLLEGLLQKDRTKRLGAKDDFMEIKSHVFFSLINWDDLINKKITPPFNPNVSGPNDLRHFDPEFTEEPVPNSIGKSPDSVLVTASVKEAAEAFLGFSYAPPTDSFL
Put plainly: Inhibition of SGK1.

The target of test [14] is Vascular endothelial growth factor receptor 2 (Homo sapiens, UniProt P35968). Put plainly: Inhibition of VEGFR2.

Chain of Insulin-like growth factor 1 receptor (P08069 31-736 limits assumed): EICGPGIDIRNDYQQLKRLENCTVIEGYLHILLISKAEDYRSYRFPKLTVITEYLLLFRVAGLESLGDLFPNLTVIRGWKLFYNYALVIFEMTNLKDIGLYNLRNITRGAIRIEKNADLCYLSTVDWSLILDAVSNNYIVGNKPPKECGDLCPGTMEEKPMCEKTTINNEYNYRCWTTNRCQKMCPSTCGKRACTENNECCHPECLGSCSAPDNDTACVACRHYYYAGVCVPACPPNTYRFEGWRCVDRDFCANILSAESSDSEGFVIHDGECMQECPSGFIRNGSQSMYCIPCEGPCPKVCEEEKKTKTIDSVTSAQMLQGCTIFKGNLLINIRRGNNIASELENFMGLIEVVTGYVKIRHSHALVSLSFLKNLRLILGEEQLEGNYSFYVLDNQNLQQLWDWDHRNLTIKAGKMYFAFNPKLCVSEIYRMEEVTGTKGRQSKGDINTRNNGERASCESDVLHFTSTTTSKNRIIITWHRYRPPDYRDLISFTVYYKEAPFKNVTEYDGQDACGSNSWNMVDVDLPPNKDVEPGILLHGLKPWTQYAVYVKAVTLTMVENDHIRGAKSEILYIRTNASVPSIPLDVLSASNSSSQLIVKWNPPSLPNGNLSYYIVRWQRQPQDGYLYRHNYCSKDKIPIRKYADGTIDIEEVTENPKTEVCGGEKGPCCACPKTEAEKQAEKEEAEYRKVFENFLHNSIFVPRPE
Chain of Insulin-like growth factor 1 receptor (P08069 741-1367 limits assumed): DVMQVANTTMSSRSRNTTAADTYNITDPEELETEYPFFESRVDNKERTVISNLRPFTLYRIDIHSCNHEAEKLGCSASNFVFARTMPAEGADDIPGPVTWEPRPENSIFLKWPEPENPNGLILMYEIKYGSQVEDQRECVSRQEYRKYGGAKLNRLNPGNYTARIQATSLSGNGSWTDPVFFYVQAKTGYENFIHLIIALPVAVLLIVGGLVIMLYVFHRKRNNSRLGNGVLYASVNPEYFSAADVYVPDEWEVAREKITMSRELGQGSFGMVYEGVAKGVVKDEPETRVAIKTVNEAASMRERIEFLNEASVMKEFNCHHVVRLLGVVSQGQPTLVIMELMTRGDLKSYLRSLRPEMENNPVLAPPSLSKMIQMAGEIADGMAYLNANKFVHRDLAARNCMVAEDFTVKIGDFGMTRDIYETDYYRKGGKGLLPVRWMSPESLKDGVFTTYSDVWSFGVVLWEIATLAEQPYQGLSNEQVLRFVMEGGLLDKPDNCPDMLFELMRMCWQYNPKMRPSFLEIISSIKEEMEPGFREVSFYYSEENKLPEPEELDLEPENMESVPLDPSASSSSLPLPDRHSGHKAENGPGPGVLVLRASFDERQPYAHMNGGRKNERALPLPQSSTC
Chain of Phosphatidylinositol 4,5-bisphosphate 3-kinase catalytic subunit alpha isoform (P42336 whole entry, canonical isoform): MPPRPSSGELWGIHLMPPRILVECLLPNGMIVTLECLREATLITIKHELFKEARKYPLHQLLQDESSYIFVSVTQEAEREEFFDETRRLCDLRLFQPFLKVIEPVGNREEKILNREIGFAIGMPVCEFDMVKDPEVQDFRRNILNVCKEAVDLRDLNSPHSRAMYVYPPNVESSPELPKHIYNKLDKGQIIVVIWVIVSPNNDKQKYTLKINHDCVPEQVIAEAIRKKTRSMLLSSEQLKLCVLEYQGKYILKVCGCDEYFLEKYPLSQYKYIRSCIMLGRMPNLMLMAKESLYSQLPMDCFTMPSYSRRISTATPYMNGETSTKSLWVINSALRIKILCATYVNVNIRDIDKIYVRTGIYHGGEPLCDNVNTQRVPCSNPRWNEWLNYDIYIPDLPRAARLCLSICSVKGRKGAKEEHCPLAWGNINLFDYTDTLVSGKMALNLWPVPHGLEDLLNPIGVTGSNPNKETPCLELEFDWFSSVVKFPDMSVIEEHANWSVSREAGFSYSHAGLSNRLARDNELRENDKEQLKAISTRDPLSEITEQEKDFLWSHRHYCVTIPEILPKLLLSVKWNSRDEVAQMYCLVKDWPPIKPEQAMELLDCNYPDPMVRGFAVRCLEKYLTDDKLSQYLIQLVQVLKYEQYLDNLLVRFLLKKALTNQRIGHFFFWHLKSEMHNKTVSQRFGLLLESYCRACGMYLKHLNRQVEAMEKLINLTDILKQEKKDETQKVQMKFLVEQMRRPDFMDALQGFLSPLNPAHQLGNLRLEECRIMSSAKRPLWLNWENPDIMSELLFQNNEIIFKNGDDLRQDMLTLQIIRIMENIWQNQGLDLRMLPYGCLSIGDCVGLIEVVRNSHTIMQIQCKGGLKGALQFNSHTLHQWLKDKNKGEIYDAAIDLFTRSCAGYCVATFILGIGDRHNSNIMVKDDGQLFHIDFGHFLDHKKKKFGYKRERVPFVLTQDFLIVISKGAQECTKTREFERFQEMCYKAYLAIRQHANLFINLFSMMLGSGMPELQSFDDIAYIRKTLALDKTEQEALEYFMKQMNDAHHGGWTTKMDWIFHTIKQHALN
Chain of RAC-alpha serine/threonine-protein kinase (P31749 whole entry): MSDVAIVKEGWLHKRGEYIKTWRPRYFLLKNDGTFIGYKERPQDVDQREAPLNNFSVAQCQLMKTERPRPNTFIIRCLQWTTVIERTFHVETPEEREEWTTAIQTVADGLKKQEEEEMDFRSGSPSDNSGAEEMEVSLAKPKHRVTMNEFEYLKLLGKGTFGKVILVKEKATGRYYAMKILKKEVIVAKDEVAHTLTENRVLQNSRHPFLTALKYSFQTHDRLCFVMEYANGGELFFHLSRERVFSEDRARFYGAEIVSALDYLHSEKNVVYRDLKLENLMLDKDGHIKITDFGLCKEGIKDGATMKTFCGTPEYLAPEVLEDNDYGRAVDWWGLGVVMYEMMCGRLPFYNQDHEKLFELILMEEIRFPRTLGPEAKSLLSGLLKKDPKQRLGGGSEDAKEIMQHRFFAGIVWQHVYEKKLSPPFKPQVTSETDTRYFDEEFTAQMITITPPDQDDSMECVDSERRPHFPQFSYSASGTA
Chain of Mitogen-activated protein kinase 8 (P45983 whole entry): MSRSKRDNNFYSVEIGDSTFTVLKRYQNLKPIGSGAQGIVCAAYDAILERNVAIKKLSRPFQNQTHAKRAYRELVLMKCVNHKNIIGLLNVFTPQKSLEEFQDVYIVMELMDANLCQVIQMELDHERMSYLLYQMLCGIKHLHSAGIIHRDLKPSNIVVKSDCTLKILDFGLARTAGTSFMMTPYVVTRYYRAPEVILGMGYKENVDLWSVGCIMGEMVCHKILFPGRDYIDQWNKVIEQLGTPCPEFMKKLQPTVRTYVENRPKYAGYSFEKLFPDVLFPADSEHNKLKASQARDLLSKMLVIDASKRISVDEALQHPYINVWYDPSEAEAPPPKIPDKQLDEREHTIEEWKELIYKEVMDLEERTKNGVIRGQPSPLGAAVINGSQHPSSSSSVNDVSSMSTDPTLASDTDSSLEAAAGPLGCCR
Chain of Insulin receptor (P06213 28-758 limits assumed): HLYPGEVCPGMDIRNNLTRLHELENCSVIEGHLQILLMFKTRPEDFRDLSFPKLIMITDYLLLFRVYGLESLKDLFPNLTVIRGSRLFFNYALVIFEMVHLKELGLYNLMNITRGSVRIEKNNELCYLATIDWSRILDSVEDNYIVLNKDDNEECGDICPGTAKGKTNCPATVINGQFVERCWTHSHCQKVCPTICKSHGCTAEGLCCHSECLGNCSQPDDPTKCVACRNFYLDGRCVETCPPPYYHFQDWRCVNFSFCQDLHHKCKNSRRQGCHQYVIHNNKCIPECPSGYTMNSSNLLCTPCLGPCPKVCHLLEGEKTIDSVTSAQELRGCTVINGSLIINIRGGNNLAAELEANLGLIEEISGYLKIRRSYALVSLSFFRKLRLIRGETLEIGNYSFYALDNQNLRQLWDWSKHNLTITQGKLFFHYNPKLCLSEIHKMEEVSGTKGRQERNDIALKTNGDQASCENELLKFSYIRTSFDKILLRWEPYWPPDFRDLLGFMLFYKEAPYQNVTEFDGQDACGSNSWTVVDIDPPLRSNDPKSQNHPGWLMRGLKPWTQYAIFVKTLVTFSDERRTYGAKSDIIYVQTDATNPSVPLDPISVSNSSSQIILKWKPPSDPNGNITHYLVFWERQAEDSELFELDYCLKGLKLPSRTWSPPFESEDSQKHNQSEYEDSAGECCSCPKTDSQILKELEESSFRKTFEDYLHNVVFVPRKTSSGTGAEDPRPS
Chain of Insulin receptor (P06213 763-1382 limits assumed): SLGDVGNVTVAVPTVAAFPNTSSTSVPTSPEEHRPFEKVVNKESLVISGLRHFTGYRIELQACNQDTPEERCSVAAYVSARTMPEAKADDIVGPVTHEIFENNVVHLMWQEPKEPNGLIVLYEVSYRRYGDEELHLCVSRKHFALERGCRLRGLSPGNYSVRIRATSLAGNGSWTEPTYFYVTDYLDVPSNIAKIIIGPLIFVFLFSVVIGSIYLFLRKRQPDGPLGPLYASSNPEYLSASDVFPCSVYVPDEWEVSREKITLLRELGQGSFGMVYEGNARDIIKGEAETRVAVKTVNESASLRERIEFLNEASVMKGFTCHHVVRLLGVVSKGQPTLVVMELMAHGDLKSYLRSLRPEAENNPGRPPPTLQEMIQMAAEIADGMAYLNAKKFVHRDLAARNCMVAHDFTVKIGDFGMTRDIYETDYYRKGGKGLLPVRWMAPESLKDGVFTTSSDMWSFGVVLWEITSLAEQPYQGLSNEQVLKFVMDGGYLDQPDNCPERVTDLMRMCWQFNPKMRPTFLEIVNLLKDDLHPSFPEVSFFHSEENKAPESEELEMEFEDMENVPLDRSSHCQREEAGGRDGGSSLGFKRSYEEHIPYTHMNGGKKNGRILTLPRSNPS

`NC(=O)c1[nH]ncc1N` had an IC50 in [1] of 200 µM.

On to `NC(=O)c1cccc2cc[nH]c12`, for which the midpoint of inhibition in test [1], the IC50, lay at 97.5 µM. Against the preceding molecule, the IC50 is about 2.1-fold lower.

In turn, `Nc1cc(-c2ccco2)n[nH]1` displayed a concentration for half-maximal inhibition (IC50) in test [1] of 313 µM.

`Nc1cc(-c2ccc3c(N)n[nH]c3c2)ccn1` displayed an IC50 in test [2] of 7.28 µM.

As to `Nc1nccc(-c2ccc3c(N)n[nH]c3c2)n1`, the IC50 in [3] was over 10 µM; in [4], 5.69 µM; on Aurora kinase A, 0.39 µM; in test [5], 0.28 µM; in [6], over 10 µM; in [7], over 10 µM. For the same molecule, the IC50 in test [8] is 0.1 µM; against Insulin receptor, over 10 µM; in [9] it was 0.99 µM; in [10], over 10 µM; in test [11], 6.34 µM; in [12], over 10 µM. The results for the IC50 in [13], in test [14] and in test [2] were over 10 µM, 0.84 µM and 0.37 µM, respectively.

The molecule `Nc1nc(N)c2[nH]cnc2n1` [2,6-DIAMINOPURINE] came in with an IC50 in test [1] of 50.8 µM.

The molecule `Nc1cc2ccccc2cn1` [ISOQUINOLIN-3-AMINE] showed an IC50 in [1] of 376 µM.

In [1], `c1cc(-c2cc[nH]n2)ccn1` showed an IC50 of 326 µM.

With `c1ccc(-c2nccs2)cc1` [2-PHENYLTHIAZOLE], the IC50 in test [1] was found to be 95.1 µM.

Usually IC50 stands for the concentration that gives 50% inhibition.
